Results on 2 compounds are retold here after paper PMC7906907, “Targeting STAT3 by a small molecule suppresses pancreatic cancer progression” (Oncogene, 2021).

The test system of test [1] is PAN02-luc. The test is described as follows: Pancreatic cancer liver metastatic mouse model. Format: in vivo, C57BL/6 mice. How it is done:
C57BL/6 mice were intrasplenically injected with luciferase-expressing PAN02 cells (PAN02-luc) in matrigel and tumor growth was assessed (A) and quantified (B) by bioluminescent imaging weekly. […] C After 4 weeks, mice were sacrificed and livers were imaged. D The body weight of C57BL/6 tumor-bearing mice were measured weekly.
C57BL/6, male, 8-week-old mice were obtained from the Animal Center of East China Normal University. All animal experimental protocols were approved by the Animal Investigation Committee of the Institute of Biomedical Sciences, East China Normal University. PAN02 cells that stably expressed luciferase (PAN02-luc) were embedded in Matrigel (BD Biosciences) and intrasplenically injected into mice. Tumors were allowed to grow for 1 week and treatment of the mice with either compound or control was started after grouping of the mice according to average bioluminescence. The IVIS Imaging System (Xenogen Corporation) was used to monitor pancreatic tumor growth and metastasis. Images and measurements of bioluminescent signals were acquired and analyzed using Living Image and Xenogen software.

The subject of test [2] is PAN02-luc. The test is described as follows: Orthotopic pancreatic cancer tumor model. Conditions: week 4, C188-9 group. Format: in vivo, C57BL/6 mice. How it is done:
Fig. 7 N4 inhibits tumor growth in an orthotopic pancreatic cancer model. C57BL/6 mice were injected the tail of the pancreas with luciferase-expressing PAN02 cells (PAN02-luc) in matrigel and tumor growth was assessed (A) and quantified (B) by bioluminescent imaging weekly. Data represent the mean ± SD; *P < 0.05, **P < 0.01, ***P < 0.001, ****P < 0.0001, n.s. not significant by one-way ANOVA followed by multiple-comparison tests. (n = 5 mice per group) C After 4 weeks, mice were sacrificed and the pancreas were imaged. The tumor of pancreas were photographed (D) and weighted (E), scale bar, 0.5 cm.
Briefly, specimens of tumor tissue from xenograft models and orthotopic models were fixed with 4% paraformaldehyde solution at 4 °C overnight. […] Then, according to the manufacturer’s instructions (SK-4100; Vector laboratories), the avidin-biotin peroxidase complex was used, followed by colorimetric detection using DAB. Finally, hematoxylin was used to counterstain the sections and coverslips were mounted.
C57BL/6 mice, male, 4–6 week old were obtained from the Animal Center of East China Normal University. All animal experimental protocols were approved by the Animal Investigation Committee of the Institute of Biomedical Sciences, East China Normal University. PAN02 cells that stably expressed luciferase (PAN02-luc) were embedded in Matrigel (BD Biosciences) were injected with 5 × 10^5 in the tail of the pancreas. On the next day (day 0), the mice were subjected to bioluminescent imaging and divided into four groups according to the luciferase luminescence value. Mice were treated with intraperitoneal injection of indicated compound or drug. Tumor growth was analyzed once a week by an IVIS Imaging System (Xenogen Corporation, Alameda, CA) and end of study tumor weight was determined immediately postmortem. […] Images and measurements of bioluminescent signals were acquired and analyzed using Living Image and Xenogen software.

The target in the next test is T1, STAT3^127–722 protein (Homo sapiens, UniProt P40763).
T1 construct: made in house
Kind of test: Surface plasmon resonance (SPR) assay. Format: binding. The following applies: SPR. Here is the method: Surface plasmon resonance (SPR) analysis was conducted with a Biacore T200 instrument (GE Healthcare) with CM5 sensor chip (GE Healthcare). To test N4 binding of STAT3^127–722 protein, serially diluted concentrations of N4 were injected into the flow system. Experiments were conducted using phosphate buffered saline (PBS) and the analyte was injected at the flow rate of 30 μL/min. The association time was 60 s and the dissociation time was 30 s. Since N4 was dissolved in PBS containing 5% dimethyl sulfoxide and a solvent correction assay was performed to adjust the results. STAT3^127–722 protein was immobilized on the sensor chip (CM5) using the amine-coupling method according to standard protocols. N4 or Stattic at various concentrations were injected into the flow system. […] The KD values were calculated with the kinetics and affinity analysis option of Biacore T200 plus evaluation software (version 3.0).
On the technique in general: In SPR one partner is held on a chip, and binding of the other changes the refractive index at the surface.

In test [3] the target is His-STAT3^127-722 protein (Homo sapiens, UniProt P40763). The test is described as follows: Fluorescence polarization (FP) assay, STAT3-phosphopeptide interaction. Type of test: binding. Set-up: We purified amino acids 127–722 of the STAT3 protein for this assay; made in house. Conditions: Supplementary Table 1; inhibition of STAT3 dimerization in FP assay; read-out: FP assay (IC50 μM). (Polarisation of emitted light reports the rotation of a fluorescent probe.)
Experimental: A Purified STAT3 protein was incubated with labeled phosphopeptide, 5-carboxyfluorescein-GpYLPQTV-NH2 for 1 h at 37 °C. FP signals were measured, and the data were analyzed using Graph Pad 7.0 software. […] C Different concentrations of N4 were pre-incubated with recombined STAT3 protein for 1 h, then 10 nM of labeled peptide was added for 1 h. The IC50 was calculated using Graph Pad 7.0.
The labeled phosphopeptide: 5-carboxyfluorescein-GpYLPQTV-NH2 (where pY represents phospho-Tyr) was used as the STAT3 binding probe. To evaluate the effect of compounds in inhibiting STAT3-peptide interaction, serial dilutions of the STAT3 competitors were prepared. The diluted compounds were added to the reaction mixture in 100 μl of FP buffer (50 mM HEPES, pH 7.5, 150 mM NaCl, 0.1% NP-40, and 1 mM dithiothreitol) containing 500 nM his-STAT3^127–722 protein for pre-incubation at 37 °C for 1 h. Then, 10 nM of the labeled peptide was added and incubated for 1 h. After incubation, FP was measured on a Cytation^TM 5 cell imaging multi-mode Reader (BioTek) using excitation and emission wavelengths of 480 nm and 535 nm, respectively. Each reaction was repeated two or three times. Binding or competitive parameters were calculated from a nonlinear regression using GraphPad Prism 7.0.

pKd: −log10 of the molar value. A value given as a limit tells only on which side of the number the result lay.

T1 sequence (P40763 127-722): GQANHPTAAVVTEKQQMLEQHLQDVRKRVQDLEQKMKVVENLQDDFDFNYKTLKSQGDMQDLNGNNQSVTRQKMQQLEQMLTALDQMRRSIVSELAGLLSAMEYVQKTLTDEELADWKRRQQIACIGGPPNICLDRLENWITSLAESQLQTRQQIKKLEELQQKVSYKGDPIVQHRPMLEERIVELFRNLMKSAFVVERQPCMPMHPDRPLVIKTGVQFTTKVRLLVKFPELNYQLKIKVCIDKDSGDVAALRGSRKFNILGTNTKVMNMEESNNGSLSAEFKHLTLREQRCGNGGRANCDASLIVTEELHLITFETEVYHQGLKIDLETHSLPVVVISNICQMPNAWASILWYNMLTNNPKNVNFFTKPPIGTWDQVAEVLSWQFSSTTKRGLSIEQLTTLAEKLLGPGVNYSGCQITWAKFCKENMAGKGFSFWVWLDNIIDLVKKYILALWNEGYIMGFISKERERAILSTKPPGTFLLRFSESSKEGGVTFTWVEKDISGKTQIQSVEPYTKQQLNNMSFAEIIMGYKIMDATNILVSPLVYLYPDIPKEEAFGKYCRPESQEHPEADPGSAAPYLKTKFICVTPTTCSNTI
Chain of His-STAT3^127-722 protein (P40763 127-722): as above

For the compound `COc1ccc(S(=O)(=O)Nc2cc(-c3c(O)ccc4ccccc34)c(O)c3ccccc23)cc1` [C188-9, reference compound], the “all mice died by week” value with PAN02-luc [1] (C188-9 group, n = 5) is listed as not above 6 week. In the test on PAN02-luc [1] (week 4, C188-9 group), the “tumor metastasis suppressed compared with the control group” value amounted to 30.65%. Moreover, in the test with PAN02-luc [2], the “tumor volume suppressed compared with the control group” value was found to be 48.23%.

Broadly, the pKd is −log10 of the Kd, conventionally taken in molar units. Lower therefore signals a high Kd. As usually defined, the IC50 is the midpoint of a concentration-inhibition curve. In the case of `O=[N+]([O-])c1ccc2c(c1)S(=O)(=O)C=C2` [Stattic, reference compound], the pKd at STAT3^127–722 protein (STAT3^127–722 immobilized on CM5 chip, 25 °C) was 5.02; at STAT3^127–722 protein (value given in figure), 5.02. Besides, the IC50 in test [3] turned out to be 4.99 µM.
